Target: UGT720-269-1 (Siraitia grosvenorii, UniProt P0DO66)
Settings: 1 mM UDPG, 10 mM MgCl2, 40 °C; crude enzyme in screening assay

UGT720-269-1, sequence (P0DO66 whole entry): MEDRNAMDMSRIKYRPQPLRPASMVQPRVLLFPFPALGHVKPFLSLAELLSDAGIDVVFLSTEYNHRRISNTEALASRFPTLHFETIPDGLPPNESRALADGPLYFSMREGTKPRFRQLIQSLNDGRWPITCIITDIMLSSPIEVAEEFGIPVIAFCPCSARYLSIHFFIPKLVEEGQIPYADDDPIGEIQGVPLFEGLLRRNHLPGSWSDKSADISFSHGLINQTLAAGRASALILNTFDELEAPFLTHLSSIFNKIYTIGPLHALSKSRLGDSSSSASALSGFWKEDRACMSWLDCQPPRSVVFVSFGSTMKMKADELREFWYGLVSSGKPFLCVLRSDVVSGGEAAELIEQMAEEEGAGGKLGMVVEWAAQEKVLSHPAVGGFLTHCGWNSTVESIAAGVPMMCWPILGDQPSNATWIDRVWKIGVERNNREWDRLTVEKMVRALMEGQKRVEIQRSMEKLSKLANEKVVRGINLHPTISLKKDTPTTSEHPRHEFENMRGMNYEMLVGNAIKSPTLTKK

SMILES: C[C@H](CC[C@@H](O)C(C)(C)O)[C@H]1CC[C@@]2(C)[C@@H]3CC=C4[C@@H](CC[C@H](O)C4(C)C)[C@]3(C)[C@H](O)C[C@]12C [mogrol]
- HPLC product analysis: low catalytic property of UGT720-269-1 in the sequential glycosylation of mogrol to IIE
